What was measured:
Conditions in all cases: Homo sapiens
Nucleic Acid = system: Nucleic Acid
Description: Binding affinity to human duplex DNA assessed as change in melting temperature by FRET-melting assay

OVCAR-8 = assay: cells
Description: Anticancer activity against human OVCAR8 cells

OVCAR-5 = assay: cells
Description: Anticancer activity against human OVCAR5 cells

IGROV-1 = assay: cells
Description: Anticancer activity against human IGROV1 cells

SK-MEL-28 = assay: cells
Description: Anticancer activity against human SK-MEL-28 cells

LOX IMVI = assay: cells
Description: Anticancer activity against human LOXIMVI cells

U-251 = assay: cells
Description: Anticancer activity against human U251 cells

SNB-75 = assay: cells
Description: Anticancer activity against human SNB75 cells

SF-295 = assay: cells
Description: Anticancer activity against human SF295 cells

SF-268 = assay: cells
Description: Anticancer activity against human SF268 cells

HT-29 = assay: cells
Description: Anticancer activity against human HT-29 cells

HCT-15 = assay: cells
Description: Anticancer activity against human HCT15 cells

HCT-116 = assay: cells
Description: Anticancer activity against human HCT116 cells

HCC 2998 = assay: cells
Description: Anticancer activity against human HCC2998 cells

NCI-H460 = assay: cells
Description: Anticancer activity against human NCI-H460 cells

NCI-H23 = assay: cells
Description: Anticancer activity against human NCI-H23 cells

NCI-H226 = assay: cells
Description: Anticancer activity against human NCI-H226 cells

HOP-92 = assay: cells
Description: Anticancer activity against human HOP92 cells

HOP-62 = assay: cells
Description: Anticancer activity against human HOP62 cells

A549 = assay: cells
Description: Anticancer activity against human A549 cells

cells = assay: cells
Description: Anticancer activity against human RPMI8266 cells

K562 = assay: cells
Description: Anticancer activity against human K562 cells

T47D = assay: cells
Description: Anticancer activity against human T47D cells

MDA-MB-435 = assay: cells
Description: Anticancer activity against human MDA-MB-435 cells

MDA-MB-231 = assay: cells
Description: Anticancer activity against human MDA-MB-231 cells

NCI/ADR-RES = assay: cells
Description: Anticancer activity against human NCI/ADR-RES cells

MCF7 = assay: cells
Description: Anticancer activity against human MCF7 cells

UO-31 = assay: cells
Description: Anticancer activity against human UO31 cells

A498 = assay: cells
Description: Anticancer activity against human A498 cells

With `C[n+]1c2ccccc2c(NC2CCNCC2)c2[nH]c3ccccc3c21.[Cl-]` the ΔTm (Nucleic Acid) was 15.1 °C, the GI50 (OVCAR-8; OVCAR-8, read-out: pGI50 (converted)) was 1.74 µM and the CC50 (OVCAR-8; OVCAR-8, read-out: pLC50 (converted)) was 45.7 µM. It also gave a TGI (OVCAR-8; OVCAR-8, read-out: pTGI) of 12.3 µM, a GI50 (OVCAR-5; OVCAR-5, read-out: pGI50 (converted)) of 1.66 µM and a CC50 (OVCAR-5; OVCAR-5, read-out: pLC50 (converted)) of over 100 µM. The TGI (OVCAR-5; OVCAR-5, read-out: pTGI) was 17 µM, the GI50 (IGROV-1; IGROV-1, read-out: pGI50 (converted)) was 0.363 µM and the CC50 (IGROV-1; IGROV-1, read-out: pLC50 (converted)) was over 100 µM. The TGI (IGROV-1; IGROV-1, read-out: pTGI) was 5.01 µM, the GI50 (SK-MEL-28; SK-MEL-28, read-out: pGI50 (converted)) was 1.05 µM and the CC50 (SK-MEL-28; SK-MEL-28, read-out: pLC50 (converted)) was 10.5 µM. The TGI (SK-MEL-28; SK-MEL-28, read-out: pTGI) was 3.24 µM, the GI50 (LOX IMVI; read-out: pGI50 (converted)) was 1.7 µM and the CC50 (LOX IMVI; read-out: pLC50 (converted)) was 49 µM. For the same compound, the TGI (LOX IMVI; read-out: pTGI) was 5.25 µM, the GI50 (U-251; U-251, read-out: pGI50 (converted)) was 0.282 µM and the CC50 (U-251; U-251, read-out: pLC50 (converted)) was over 100 µM. The TGI (U-251; U-251, read-out: pTGI) was 2.95 µM, the GI50 (SNB-75; SNB-75, read-out: pGI50 (converted)) was 1.38 µM and the CC50 (SNB-75; SNB-75, read-out: pLC50 (converted)) was 24.5 µM. For the same compound, the TGI (SNB-75; SNB-75, read-out: pTGI) was 5.37 µM, the GI50 (SF-295; SF-295, read-out: pGI50 (converted)) was 0.741 µM and the CC50 (SF-295; SF-295, read-out: pLC50 (converted)) was 77.6 µM. For the same compound, the TGI (SF-295; SF-295, read-out: pTGI) was 10.2 µM, the GI50 (SF-268; SF-268, read-out: pGI50 (converted)) was 0.0457 µM and the CC50 (SF-268; SF-268, read-out: pLC50 (converted)) was 42.7 µM. It also gave a TGI (SF-268; SF-268, read-out: pTGI) of 1.38 µM, a GI50 (HT-29; HT-29, read-out: pGI50 (converted)) of 0.209 µM and a CC50 (HT-29; HT-29, read-out: pLC50 (converted)) of 70.8 µM. It also gave a TGI (HT-29; HT-29, read-out: pTGI) of 10.2 µM, a GI50 (HCT-15; HCT-15, read-out: pGI50 (converted)) of 23.4 µM and a CC50 (HCT-15; HCT-15, read-out: pLC50 (converted)) of over 100 µM. For the same compound, the TGI (HCT-15; HCT-15, read-out: pTGI) was over 100 µM, the GI50 (HCT-116; HCT-116, read-out: pGI50 (converted)) was 0.813 µM and the CC50 (HCT-116; HCT-116, read-out: pLC50 (converted)) was over 100 µM. The TGI (HCT-116; HCT-116, read-out: pTGI) was 4.9 µM, the GI50 (HCC 2998; HCC 2998, read-out: pGI50 (converted)) was 0.324 µM and the CC50 (HCC 2998; HCC 2998, read-out: pLC50 (converted)) was 5.25 µM. The TGI (HCC 2998; HCC 2998, read-out: pTGI) was 1.7 µM, the GI50 (NCI-H460; NCI-H460, read-out: pGI50 (converted)) was 0.245 µM and the CC50 (NCI-H460; NCI-H460, read-out: pLC50 (converted)) was 22.4 µM. It also gave a TGI (NCI-H460; NCI-H460, read-out: pTGI) of 1.62 µM, a GI50 (NCI-H23; NCI-H23, read-out: pGI50 (converted)) of 0.0589 µM and a CC50 (NCI-H23; NCI-H23, read-out: pLC50 (converted)) of 10.2 µM. The TGI (NCI-H23; NCI-H23, read-out: pTGI) was 0.646 µM, the GI50 (NCI-H226; NCI-H226, read-out: pGI50 (converted)) was 0.537 µM and the CC50 (NCI-H226; NCI-H226, read-out: pLC50 (converted)) was 28.8 µM. The TGI (NCI-H226; NCI-H226, read-out: pTGI) was 3.24 µM, the GI50 (HOP-92; HOP-92, read-out: pGI50 (converted)) was 1.15 µM and the CC50 (HOP-92; HOP-92, read-out: pLC50 (converted)) was over 100 µM. For the same compound, the TGI (HOP-92; HOP-92, read-out: pTGI) was 6.92 µM, the GI50 (HOP-62; HOP-62, read-out: pGI50 (converted)) was 0.525 µM and the CC50 (HOP-62; HOP-62, read-out: pLC50 (converted)) was 30.9 µM. It also gave a TGI (HOP-62; HOP-62, read-out: pTGI) of 5.62 µM, a GI50 (A549; A549, read-out: pGI50 (converted)) of 0.0776 µM and a CC50 (A549; A549, read-out: pLC50 (converted)) of over 100 µM. It also gave a TGI (A549; A549, read-out: pTGI) of 13.8 µM, a GI50 (cells; RPMI8266, read-out: pGI50 (converted)) of 0.661 µM and a CC50 (cells; RPMI8266, read-out: pLC50 (converted)) of over 100 µM. It also gave a TGI (cells; RPMI8266, read-out: pTGI) of 3.89 µM, a GI50 (K562; K562, read-out: pGI50 (converted)) of 0.295 µM and a CC50 (K562; K562, read-out: pLC50 (converted)) of over 100 µM. The GI50 (T47D; read-out: pGI50 (converted)) was 0.234 µM, the CC50 (T47D; read-out: pLC50 (converted)) was over 100 µM and the TGI (T47D; read-out: pTGI) was 2.34 µM. It also gave a GI50 (MDA-MB-435; MDA-MB-435, read-out: pGI50 (converted)) of 2.95 µM, a CC50 (MDA-MB-435; MDA-MB-435, read-out: pLC50 (converted)) of 42.7 µM and a TGI (MDA-MB-435; MDA-MB-435, read-out: pTGI) of 10.5 µM. For the same compound, the GI50 (MDA-MB-231; MDA-MB-231, read-out: pGI50 (converted)) was 1.1 µM, the CC50 (MDA-MB-231; MDA-MB-231, read-out: pLC50 (converted)) was 52.5 µM and the TGI (MDA-MB-231; MDA-MB-231, read-out: pTGI) was 9.77 µM. The GI50 (NCI/ADR-RES; read-out: pGI50 (converted)) was over 100 µM, the CC50 (NCI/ADR-RES; read-out: pLC50 (converted)) was over 100 µM and the TGI (NCI/ADR-RES; read-out: pTGI) was over 100 µM. For the same compound, the GI50 (MCF7; MCF7, read-out: pGI50 (converted)) was 0.224 µM, the CC50 (MCF7; MCF7, read-out: pLC50 (converted)) was over 100 µM and the TGI (MCF7; MCF7, read-out: pTGI) was 2.14 µM. For the same compound, the GI50 (UO-31; UO-31, read-out: pGI50 (converted)) was 13.2 µM, the CC50 (UO-31; UO-31, read-out: pLC50 (converted)) was over 100 µM and the TGI (UO-31; UO-31, read-out: pTGI) was 46.8 µM. For the same compound, the GI50 (A498; A498, read-out: pGI50 (converted)) was 1.62 µM, the CC50 (A498; A498, read-out: pLC50 (converted)) was 26.3 µM and the TGI (A498; A498, read-out: pTGI) was 5.13 µM.
